According to article PMC12892976, “Alkylation-based optimization of antifungal FPPS inhibitors yields a potent, broad-spectrum lipophilic zoledronate derivative” (mBio, 2025):

Assays:
Cryptococcus gattii = test: checkerboard drug interaction (FICI, MICc); type: cell-based;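 note: simplified diagonal checkerboard screen pairing antifungals with FPPS inhibitors, FICI computed under the Loewe additivity model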
Description: (§2) Drug interactions between antifungals and FPPS inhibitors were investigated using a simplified checkerboard diagonal screening method ([45]). […] FICIs were determined according to the Loewe additivity model ([17]).

Streptococcus pneumoniae = test: antibacterial MIC; type: cell-based
Text: (§1) […]; Table S3). […]. […] […].

Staphylococcus aureus = test: antibacterial MIC; type: cell-based
Text: as §1

Bacillus subtilis = test: antibacterial MIC; type: cell-based
Text: as §1

Pseudomonas aeruginosa = test: antibacterial MIC; type: cell-based
Text: as §1

Candida auris = test: MIC broth microdilution (CLSI); type: cell-based; conditions: Candida auris CDC-0384
Description: (§3) Antifungal susceptibility was determined by broth microdilution according to the CLSI guidelines described in M27-Ed4 ([16]).

Trichophyton soudanense = test: checkerboard drug interaction (FICI, MICc); type: cell-based;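 note: simplified diagonal checkerboard screen pairing antifungals with FPPS inhibitors, FICI computed under the Loewe additivity model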
Description: as §2

[1] = test system: Cryptococcus deneoformans; test: MIC broth microdilution (CLSI); type: cell-based; conditions: Cryptococcus deneoformans JEC21
Description: as §3

Aspergillus parafelis = test: MIC broth microdilution (CLSI); type: cell-based; conditions: Aspergillus parafelis DTO 341-F2
Description: as §3

Aspergillus lentulus [2] = test: checkerboard drug interaction (FICI, MICc); type: cell-based;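 note: simplified diagonal checkerboard screen pairing antifungals with FPPS inhibitors, with the interaction index calculated under the Loewe additivity model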
Description: as §2

Aspergillus lentulus [3] = test: MIC broth microdilution (CLSI); type: cell-based; conditions: Aspergillus lentulus DTO 341-G7
Description: as §3

Aspergillus terreus = test: MIC broth microdilution (CLSI); type: cell-based; conditions: Aspergillus terreus 75-16-089-2500
Description: as §3

Aspergillus felis = test: checkerboard drug interaction (FICI, MICc); type: cell-based;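 note: simplified diagonal checkerboard screen pairing antifungals with FPPS inhibitors, FICI calculated under the Loewe additivity model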
Description: as §2

[4] = test system: Cryptococcus deneoformans; test: checkerboard drug interaction (FICI, MICc); type: cell-based;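 note: simplified diagonal checkerboard screen pairing antifungals with FPPS inhibitors, FICI calculated under the Loewe additivity model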
Description: as §2

Lomentospora prolificans = test: checkerboard drug interaction (FICI, MICc);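 note: simplified diagonal checkerboard screen pairing antifungals with FPPS inhibitors, FICI calculated under the Loewe additivity model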
Description: as §2

[5] = test system: Cryptococcus deuterogattii biofilms; test: biofilm XTT reduction assay (SIC80, SFICI); conditions: for SICc / SFICI: Cryptococcus deuterogattii
Description: (§4) Biofilms of Cryptococcus were seeded in DMEM, and all other species were seeded in RPMI-1640.

[6] = test system: Candida albicans biofilms; test: biofilm XTT reduction assay (SIC80, SFICI); conditions: for SICc / SFICI: Candida albicans
Description: as §4

Pichia kudriavzevii = test: MIC broth microdilution (CLSI); type: cell-based; conditions: Pichia kudriavzavii ATCC 6258
Description: Antifungal susceptibility was determined by broth microdilution according to the CLSI guidelines described in M27-Ed4 ([16]). […] MFC was determined by back-plating drug-treated cultures from MIC broths onto SDA plates. The MFC was defined as the lowest concentration from which no colonies could be cultured.

Rhizopus oryzae = test: checkerboard drug interaction (FICI, MICc); type: cell-based;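 note: simplified diagonal checkerboard screen pairing antifungals with FPPS inhibitors, FICI calculated under the Loewe additivity model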
Description: as §2

CCCCCCCCCCn1cc[n+](CC(O)(P(=O)(O)O)P(=O)(O)O)c1 [10-ZOL, Decyl-zoledronate]
0.125: bisphosphonate MICc (Cryptococcus gattii; with AMB) | bisphosphonate MICc (Cryptococcus gattii; with CAS) | bisphosphonate MICc (Cryptococcus gattii; with ITR) | bisphosphonate MICc (Cryptococcus gattii; with KET) | bisphosphonate MICc (Cryptococcus gattii; with VOR) | bisphosphonate MICc (Trichophyton soudanense; with ITR) | bisphosphonate MICc ([4]; with AMB) | bisphosphonate MICc ([4]; with KET)
1.00: SFICI ([5]; FLC:10-ZOL) | SFICI ([5]; ITR:10-ZOL) | SFICI ([6]; ITR:10-ZOL) | SFICI ([6]; KET:10-ZOL)
0.38: SFICI ([5]; KET:10-ZOL)
1.3: FICI ([4]; VOR:10-ZOL)
32 µg/mL: SICc ([5]; FLC:10-ZOL combination) | SICc ([5]; ITR:10-ZOL combination) | SICc ([6]; FLC:10-ZOL combination)
0.8: FICI (Cryptococcus gattii; VOR:10-ZOL)
0.5: FICI (Cryptococcus gattii; CAS:10-ZOL) | FICI (Cryptococcus gattii; KET:10-ZOL) | bisphosphonate MICc (Cryptococcus gattii; with FLC) | bisphosphonate MICc (Trichophyton soudanense; with CAS) | bisphosphonate MICc (Trichophyton soudanense; with FLC) | bisphosphonate MICc ([4]; with 5FC) | bisphosphonate MICc ([4]; with FLC) | bisphosphonate MICc ([4]; with ITR) | FICI (Lomentospora prolificans; ITR:10-ZOL) | bisphosphonate MICc (Lomentospora prolificans; with CAS) | bisphosphonate MICc (Lomentospora prolificans; with ITR) | bisphosphonate MICc (Rhizopus oryzae; with CAS)
0.5 µg/mL: MIC / MEC (Aspergillus terreus)
≥4: FICI (Aspergillus lentulus [2]; 5FC:10-ZOL) | FICI (Aspergillus felis; CAS:10-ZOL) | FICI (Lomentospora prolificans; CAS:10-ZOL) | FICI (Rhizopus oryzae; 5FC:10-ZOL) | FICI (Rhizopus oryzae; CAS:10-ZOL)
16 µg/mL: MIC (Streptococcus pneumoniae) | MIC (Staphylococcus aureus) | SICc ([5]; KET:10-ZOL combination)
64 µg/mL: SIC80 ([5]; agent alone, Cryptococcus deuterogattii R265) | SICc ([6]; ITR:10-ZOL combination) | SICc ([6]; KET:10-ZOL combination)
1.5: FICI (Cryptococcus gattii; FLC:10-ZOL)
0.52: FICI (Aspergillus felis; FLC:10-ZOL)
2: FICI (Trichophyton soudanense; 5FC:10-ZOL) | bisphosphonate MICc (Trichophyton soudanense; with 5FC) | FICI (Aspergillus lentulus [2]; CAS:10-ZOL) | bisphosphonate MICc (Aspergillus lentulus [2]; with AMB) | bisphosphonate MICc (Aspergillus lentulus [2]; with CAS) | bisphosphonate MICc (Aspergillus lentulus [2]; with FLC) | bisphosphonate MICc (Lomentospora prolificans; with AMB) | bisphosphonate MICc (Rhizopus oryzae; with 5FC)
1 µg/mL: MIC / MEC [1]
> 16 µg/mL: MIC (Bacillus subtilis) | MIC (Pseudomonas aeruginosa)
4 µg/mL: MIC / MEC (Aspergillus parafelis) | MIC / MEC (Pichia kudriavzevii)
1.55: FICI ([4]; ITR:10-ZOL)
0.61: FICI (Trichophyton soudanense; VOR:10-ZOL) | FICI ([4]; KET:10-ZOL)
0.50: SFICI ([6]; FLC:10-ZOL)
128 µg/mL: SIC80 ([6]; agent alone, Candida albicans SC5314)
0.25: bisphosphonate MICc (Cryptococcus gattii; with 5FC) | bisphosphonate MICc (Trichophyton soudanense; with AMB) | bisphosphonate MICc (Trichophyton soudanense; with VOR) | bisphosphonate MICc (Aspergillus felis; with KET) | bisphosphonate MICc ([4]; with VOR) | bisphosphonate MICc (Rhizopus oryzae; with AMB)
4: bisphosphonate MICc (Aspergillus felis; with CAS)
1: FICI (Cryptococcus gattii; 5FC:10-ZOL) | bisphosphonate MICc (Trichophyton soudanense; with KET) | bisphosphonate MICc (Aspergillus lentulus [2]; with 5FC) | bisphosphonate MICc (Aspergillus lentulus [2]; with ITR) | bisphosphonate MICc (Aspergillus lentulus [2]; with KET) | bisphosphonate MICc (Aspergillus lentulus [2]; with VOR) | FICI (Aspergillus felis; AMB:10-ZOL) | bisphosphonate MICc (Aspergillus felis; with 5FC) | bisphosphonate MICc (Aspergillus felis; with AMB) | bisphosphonate MICc (Aspergillus felis; with FLC) | bisphosphonate MICc (Aspergillus felis; with ITR) | bisphosphonate MICc (Aspergillus felis; with VOR) | FICI ([4]; FLC:10-ZOL) | bisphosphonate MICc ([4]; with CAS) | bisphosphonate MICc (Lomentospora prolificans; with 5FC) | bisphosphonate MICc (Lomentospora prolificans; with FLC) | bisphosphonate MICc (Lomentospora prolificans; with KET) | bisphosphonate MICc (Lomentospora prolificans; with VOR) | FICI (Rhizopus oryzae; VOR:10-ZOL)
2 µg/mL: MIC / MEC (Candida auris) | MIC / MEC (Aspergillus lentulus [3])
0.28: FICI (Trichophyton soudanense; FLC:10-ZOL)
1.02: FICI (Aspergillus lentulus [2]; FLC:10-ZOL)
